Seven compounds from patent US20240182531A1, “KV1.3 Blockers” (priority 2021, published 2024) can be followed below.

The target in test [1] is T1, human Kv1.6 (Homo sapiens, UniProt P17658).
T1 construct: expressed in transfected cells; host or cells: CHO
Put plainly: cell-based. The conditions noted are these: ratio of patch clamp IC50 values. For orientation: Patch clamp records ionic current or voltage across a cell membrane.

The target of test [2] is T2, human Kv1.1 (Homo sapiens, UniProt Q09470).
T2 construct: expressed in transfected cells; host or cells: CHO
The test can be described thus: cell-based. The conditions noted are these: ratio of patch clamp IC50 values.

Test [3] concerns the target Rat whole blood (Rattus norvegicus, UniProt P15384). It is filed as cell-based. The conditions noted are these: IL-17A release, thapsigargin, 24 Hr, at least 2 replicates.
Test [4] has as its target T3, human Kv1.2 (Homo sapiens, UniProt P16389).
T3 construct: expressed in transfected cells; host or cells: CHO
Put plainly: cell-based. The conditions noted are these: ratio of patch clamp IC50 values.

For orientation: IC50 means the midpoint of a concentration-inhibition curve. Read a high IC50 as weaker potency.

Where a SMILES comes first, the peptide text is derived from it. Bridges are numbered along the chain shown (N, C = ends).

Sequence of Rat whole blood (P15384 whole entry): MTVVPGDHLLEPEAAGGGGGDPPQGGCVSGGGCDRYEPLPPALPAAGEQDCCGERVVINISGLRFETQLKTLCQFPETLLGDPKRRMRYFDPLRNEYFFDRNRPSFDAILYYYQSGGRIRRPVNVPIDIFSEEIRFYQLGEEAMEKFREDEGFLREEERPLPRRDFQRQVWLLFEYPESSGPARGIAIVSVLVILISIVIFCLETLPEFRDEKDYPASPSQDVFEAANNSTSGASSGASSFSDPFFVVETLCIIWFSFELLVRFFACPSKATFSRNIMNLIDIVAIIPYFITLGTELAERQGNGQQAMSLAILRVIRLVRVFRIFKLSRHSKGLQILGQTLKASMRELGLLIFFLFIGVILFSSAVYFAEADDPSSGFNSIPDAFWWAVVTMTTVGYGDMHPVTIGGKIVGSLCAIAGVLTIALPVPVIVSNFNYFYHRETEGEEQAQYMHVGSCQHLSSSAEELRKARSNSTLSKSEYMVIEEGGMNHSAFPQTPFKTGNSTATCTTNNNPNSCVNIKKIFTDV
T3 sequence (P16389 whole entry): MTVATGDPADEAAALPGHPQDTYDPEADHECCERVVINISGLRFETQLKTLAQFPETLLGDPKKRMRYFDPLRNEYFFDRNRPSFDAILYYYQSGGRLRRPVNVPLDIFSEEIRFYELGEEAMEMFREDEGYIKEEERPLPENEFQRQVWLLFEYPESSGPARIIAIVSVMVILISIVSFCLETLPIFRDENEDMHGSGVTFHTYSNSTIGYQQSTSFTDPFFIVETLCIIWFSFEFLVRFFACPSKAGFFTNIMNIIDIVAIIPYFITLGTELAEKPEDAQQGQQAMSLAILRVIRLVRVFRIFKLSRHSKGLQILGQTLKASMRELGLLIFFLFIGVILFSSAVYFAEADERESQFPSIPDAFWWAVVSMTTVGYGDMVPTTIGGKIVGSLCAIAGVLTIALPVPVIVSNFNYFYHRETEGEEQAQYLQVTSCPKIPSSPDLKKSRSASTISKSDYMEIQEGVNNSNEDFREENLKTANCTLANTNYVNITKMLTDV
T1 sequence (P17658 whole entry): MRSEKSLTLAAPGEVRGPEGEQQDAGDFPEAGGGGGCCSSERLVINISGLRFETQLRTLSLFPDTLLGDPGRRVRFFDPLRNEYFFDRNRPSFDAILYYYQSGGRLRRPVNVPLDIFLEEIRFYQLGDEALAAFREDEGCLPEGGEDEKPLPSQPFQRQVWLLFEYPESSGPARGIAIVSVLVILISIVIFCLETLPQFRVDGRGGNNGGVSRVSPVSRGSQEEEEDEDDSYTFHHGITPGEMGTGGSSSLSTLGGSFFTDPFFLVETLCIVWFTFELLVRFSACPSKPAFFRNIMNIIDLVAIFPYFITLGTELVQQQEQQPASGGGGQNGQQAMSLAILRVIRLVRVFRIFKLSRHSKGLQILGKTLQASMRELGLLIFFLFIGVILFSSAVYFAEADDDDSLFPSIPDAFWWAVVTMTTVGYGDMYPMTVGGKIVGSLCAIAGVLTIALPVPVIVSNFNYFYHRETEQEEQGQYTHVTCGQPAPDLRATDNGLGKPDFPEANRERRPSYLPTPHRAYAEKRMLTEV
T2 sequence (Q09470 whole entry): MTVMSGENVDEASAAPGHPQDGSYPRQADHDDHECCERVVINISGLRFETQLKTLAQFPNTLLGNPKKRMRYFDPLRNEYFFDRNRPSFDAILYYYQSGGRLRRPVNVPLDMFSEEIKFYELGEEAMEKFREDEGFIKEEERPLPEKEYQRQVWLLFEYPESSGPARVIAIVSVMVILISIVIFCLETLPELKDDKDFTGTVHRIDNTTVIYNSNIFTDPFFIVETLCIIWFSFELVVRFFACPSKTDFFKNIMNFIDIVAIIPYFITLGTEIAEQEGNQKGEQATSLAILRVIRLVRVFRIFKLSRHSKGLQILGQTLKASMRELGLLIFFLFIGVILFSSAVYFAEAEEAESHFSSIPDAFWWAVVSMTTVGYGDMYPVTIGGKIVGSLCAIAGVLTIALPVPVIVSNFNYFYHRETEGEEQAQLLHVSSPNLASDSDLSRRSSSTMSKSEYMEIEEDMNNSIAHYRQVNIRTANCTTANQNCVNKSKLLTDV

With `CC[C@H](C)[C@@H]1NC(=O)[C@H](C)NC(=O)[C@H](CCCCN)NC(=O)[C@H](CC(C)C)NC(=O)[C@@H]2CSSC[C@@H](C(=O)N[C@@H](Cc3ccc(O)cc3)C(=O)N3CCC[C@H]3C(=O)N[C@@H](CCCNC(=N)N)C(N)=O)NC(=O)[C@H](CCCCN)NC(=O)[C@@H]3CSSC[C@H](NC(=O)[C@H](CCC(=O)O)NC(=O)[C@H](C(C)C)NC(=O)[C@H](CO)NC(=O)[C@H](C)NC(=O)[C@H](CO)NC(=O)[C@@H](NC(=O)[C@H](CCCNC(=N)N)NC(=O)[C@H](CCSC)NC(=O)[C@H](CC(=O)O)NC(=O)[C@H](CCSC)NC(=O)[C@@H](N)CC(N)=O)CSSC[C@H](NC(=O)[C@H](CCCCN)NC(=O)CNC(=O)[C@H](Cc4ccccc4)NC(=O)[C@H]([C@@H](C)CC)NC(=O)[C@H](CO)NC(=O)[C@H](CCC(=O)O)NC1=O)C(=O)N[C@@H](CCSC)C(=O)N[C@@H](CC(N)=O)C(=O)N[C@@H](CCCCN)C(=O)N[C@@H](CCCCN)C(=O)N3)C(=O)N[C@@H](CCCCN)C(=O)N[C@@H](CCC(N)=O)C(=O)N[C@@H](CCCCN)C(=O)N2` [compound 27] (H-NMDMRCSASVECKQKCLKAIESIFGKCMNKKCKCYPR-NH2; disulfide 6-27, 12-32, 16-34), the “Selectivity ratio Kv1.6/Kv1.3” value in test [1] was over 10200. Also, in test [2], the “Selectivity ratio Kv1.1/Kv1.3” value was over 10200. The same compound yielded an IC50 in test [3] of 2.8 nM. Further, the “Selectivity ratio Kv1.2/Kv1.3” value in test [4] worked out at 615.
Turning to `CC[C@H](C)[C@@H]1NC(=O)[C@H](C)NC(=O)[C@H](CCCCN)NC(=O)[C@H](CC(C)C)NC(=O)[C@@H]2CSSC[C@@H](C(=O)N[C@@H](Cc3ccc(O)cc3)C(=O)N3CCC[C@H]3C(=O)N[C@@H](CCCNC(=N)N)C(N)=O)NC(=O)[C@H](CCCCN)NC(=O)[C@@H]3CSSC[C@H](NC(=O)[C@H](CCC(=O)O)NC(=O)[C@H](C(C)C)NC(=O)[C@H](CO)NC(=O)[C@H]([C@@H](C)CC)NC(=O)[C@H](CO)NC(=O)[C@@H](NC(=O)[C@H](CCCNC(=N)N)NC(=O)[C@H](CCSC)NC(=O)[C@H](CC(=O)O)NC(=O)[C@H](CCSC)NC(=O)[C@@H](N)CC(N)=O)CSSC[C@H](NC(=O)[C@H](CCCCN)NC(=O)CNC(=O)[C@H](Cc4ccccc4)NC(=O)[C@H]([C@@H](C)CC)NC(=O)[C@H](CO)NC(=O)CNC1=O)C(=O)N[C@@H](CCSC)C(=O)N[C@@H](CC(N)=O)C(=O)N[C@@H](CCCCN)C(=O)N[C@@H](CCCCN)C(=O)N3)C(=O)N[C@@H](CCCCN)C(=O)N[C@@H](CCC(N)=O)C(=O)N[C@@H](CCCCN)C(=O)N2` [compound 30] (H-NMDMRCSISVECKQKCLKAIGSIFGKCMNKKCKCYPR-NH2; disulfide 6-27, 12-32, 16-34), the “Selectivity ratio Kv1.6/Kv1.3” value in test [1] was over 11800. Further, the “Selectivity ratio Kv1.1/Kv1.3” value in test [2] is on record as over 11800. The compound also yielded a half-maximal inhibitory concentration (IC50) in test [3] of 0.61 nM. Also, the “Selectivity ratio Kv1.2/Kv1.3” value in test [4] stood at 169.
Regarding `CC[C@H](C)[C@@H]1NC(=O)[C@H](C)NC(=O)[C@H](CCCCN)NC(=O)[C@H](CC(C)C)NC(=O)[C@@H]2CSSC[C@@H](C(=O)N[C@@H](Cc3ccc(O)cc3)C(=O)N3CCC[C@H]3C(=O)N[C@@H](CCCNC(=N)N)C(N)=O)NC(=O)[C@H](CCCCN)NC(=O)[C@@H]3CSSC[C@H](NC(=O)[C@H](CCC(=O)O)NC(=O)[C@H](CCCNC(=N)N)NC(=O)[C@H](CO)NC(=O)[C@H](C)NC(=O)[C@H](CO)NC(=O)[C@@H](NC(=O)[C@H](CCCNC(=N)N)NC(=O)[C@H](CCSC)NC(=O)[C@H](CC(=O)O)NC(=O)[C@H](CCSC)NC(=O)[C@@H](N)CC(N)=O)CSSC[C@H](NC(=O)[C@H](CCCCN)NC(=O)CNC(=O)[C@H](Cc4ccccc4)NC(=O)[C@H]([C@@H](C)CC)NC(=O)[C@H](CO)NC(=O)CNC1=O)C(=O)N[C@@H](CCSC)C(=O)N[C@@H](CC(N)=O)C(=O)N[C@@H](CCCCN)C(=O)N[C@@H](CCCCN)C(=O)N3)C(=O)N[C@@H](CCCCN)C(=O)N[C@@H](CCC(N)=O)C(=O)N[C@@H](CCCCN)C(=O)N2` [compound 31] (H-NMDMRCSASRECKQKCLKAIGSIFGKCMNKKCKCYPR-NH2; disulfide 6-27, 12-32, 16-34), the “Selectivity ratio Kv1.6/Kv1.3” value in test [1] was 1778. In test [2], the “Selectivity ratio Kv1.1/Kv1.3” value is over 25900. In test [3], the IC50 was 0.68 nM. The “Selectivity ratio Kv1.2/Kv1.3” value in test [4] stood at 94.
As to `CC[C@H](C)[C@@H]1NC(=O)[C@H](C)NC(=O)[C@H](CCCCN)NC(=O)[C@H](CC(C)C)NC(=O)[C@@H]2CSSC[C@@H](C(=O)N[C@@H](Cc3ccc(O)cc3)C(=O)N3CCC[C@H]3C(=O)N[C@@H](CCCNC(=N)N)C(N)=O)NC(=O)[C@H](CCCCN)NC(=O)[C@@H]3CSSC[C@H](NC(=O)[C@H](CCC(N)=O)NC(=O)[C@H](C(C)C)NC(=O)[C@H](CO)NC(=O)[C@H](C)NC(=O)[C@H](CO)NC(=O)[C@@H](NC(=O)[C@H](CCCNC(=N)N)NC(=O)[C@H](CCSC)NC(=O)[C@H](CC(=O)O)NC(=O)[C@H](CCSC)NC(=O)[C@@H](N)CC(N)=O)CSSC[C@H](NC(=O)[C@H](CCCCN)NC(=O)CNC(=O)[C@H](Cc4ccccc4)NC(=O)[C@H]([C@@H](C)CC)NC(=O)[C@H](CO)NC(=O)CNC1=O)C(=O)N[C@@H](CCSC)C(=O)N[C@@H](CC(N)=O)C(=O)N[C@@H](CCCCN)C(=O)N[C@@H](CCCCN)C(=O)N3)C(=O)N[C@@H](CCCCN)C(=O)N[C@@H](CCC(N)=O)C(=O)N[C@@H](CCCCN)C(=O)N2` [compound 32] (H-NMDMRCSASVQCKQKCLKAIGSIFGKCMNKKCKCYPR-NH2; disulfide 6-27, 12-32, 16-34), in test [1], the “Selectivity ratio Kv1.6/Kv1.3” value was 1272. Besides, in test [2], the “Selectivity ratio Kv1.1/Kv1.3” value is over 15200. Also, the IC50 in test [3] stood at 0.53 nM. The “Selectivity ratio Kv1.2/Kv1.3” value in test [4] came to 83.
In the same order, the values of `CC[C@H](C)[C@@H]1NC(=O)[C@H](C)NC(=O)[C@H](CCCCN)NC(=O)[C@H](CC(C)C)NC(=O)[C@@H]2CSSC[C@@H](C(=O)N[C@@H](Cc3ccc(O)cc3)C(=O)N3CCC[C@H]3C(=O)N[C@@H](CCCNC(=N)N)C(N)=O)NC(=O)[C@H](CCCCN)NC(=O)[C@@H]3CSSC[C@H](NC(=O)[C@H](CCC(=O)O)NC(=O)[C@H](C(C)C)NC(=O)[C@H](CO)NC(=O)[C@H](C)NC(=O)[C@H](CO)NC(=O)[C@@H](NC(=O)[C@H](CCCNC(=N)N)NC(=O)[C@H](CCSC)NC(=O)[C@H](CC(=O)O)NC(=O)[C@H](CCSC)NC(=O)[C@@H](N)CC(N)=O)CSSC[C@H](NC(=O)[C@H](CCCCN)NC(=O)CNC(=O)[C@H](Cc4ccccc4)NC(=O)[C@H]([C@@H](C)CC)NC(=O)[C@H](CO)NC(=O)CNC1=O)C(=O)N[C@@H](CCSC)C(=O)N[C@@H](CC(N)=O)C(=O)N[C@@H](CCCCN)C(=O)N[C@@H](CCCCN)C(=O)N3)C(=O)N[C@@H](CC(C)C)C(=O)N[C@@H](CCC(N)=O)C(=O)N[C@@H](CCCCN)C(=O)N2` [compound 33] (H-NMDMRCSASVECLQKCLKAIGSIFGKCMNKKCKCYPR-NH2; disulfide 6-27, 12-32, 16-34) are over 7400, over 7400, 0.76 nM and 2163.
For `CC[C@H](C)[C@@H]1NC(=O)[C@H](C)NC(=O)[C@H](CCCCN)NC(=O)[C@H](CC(C)C)NC(=O)[C@@H]2CSSC[C@@H](C(=O)N[C@@H](Cc3ccc(O)cc3)C(=O)N3CCC[C@H]3C(=O)N[C@@H](CCCNC(=N)N)C(N)=O)NC(=O)[C@H](CCCCN)NC(=O)[C@@H]3CSSC[C@H](NC(=O)[C@H](CCC(=O)O)NC(=O)[C@H](C(C)C)NC(=O)[C@H](CO)NC(=O)[C@H](C)NC(=O)[C@H](CO)NC(=O)[C@@H](NC(=O)[C@H](CCCNC(=N)N)NC(=O)[C@H](CCSC)NC(=O)[C@H](CC(=O)O)NC(=O)[C@H](CCSC)NC(=O)[C@@H](N)CC(N)=O)CSSC[C@H](NC(=O)[C@H](CCCCN)NC(=O)CNC(=O)[C@H](Cc4ccccc4)NC(=O)[C@H]([C@@H](C)CC)NC(=O)[C@H](CO)NC(=O)CNC1=O)C(=O)N[C@@H](CCSC)C(=O)N[C@@H](CC(N)=O)C(=O)N[C@@H](CCCCN)C(=O)N[C@@H](CCCCN)C(=O)N3)C(=O)N[C@@H](C)C(=O)N[C@@H](CCC(N)=O)C(=O)N[C@@H](CCCCN)C(=O)N2` [compound 34] (H-NMDMRCSASVECAQKCLKAIGSIFGKCMNKKCKCYPR-NH2; disulfide 6-27, 12-32, 16-34), in that order: over 22000, over 22000, 0.41 nM and 4897.
For `CC[C@H](C)[C@@H]1NC(=O)[C@H](C)NC(=O)[C@H](CCCCN)NC(=O)[C@H](CC(C)C)NC(=O)[C@@H]2CSSC[C@@H](C(=O)N[C@@H](Cc3ccc(O)cc3)C(=O)N3CCC[C@H]3C(=O)N[C@@H](CCCNC(=N)N)C(N)=O)NC(=O)[C@H](CCCCN)NC(=O)[C@@H]3CSSC[C@H](NC(=O)[C@H](CCC(=O)O)NC(=O)[C@H](C(C)C)NC(=O)[C@H](CO)NC(=O)[C@H](C)NC(=O)[C@H](CO)NC(=O)[C@@H](NC(=O)[C@H](CCCNC(=N)N)NC(=O)[C@H](CCSC)NC(=O)[C@H](CC(=O)O)NC(=O)[C@H](CCSC)NC(=O)[C@@H](N)CC(N)=O)CSSC[C@H](NC(=O)[C@H](CCCCN)NC(=O)CNC(=O)[C@H](Cc4ccccc4)NC(=O)[C@H]([C@@H](C)CC)NC(=O)[C@H](CO)NC(=O)CNC1=O)C(=O)N[C@@H](CCSC)C(=O)N[C@@H](CC(N)=O)C(=O)N[C@@H](CCCCN)C(=O)N[C@@H](CCCCN)C(=O)N3)C(=O)N[C@@H](CCCCN)C(=O)N[C@@H](CCC(=O)O)C(=O)N[C@@H](CCCCN)C(=O)N2` [compound 35] (H-NMDMRCSASVECKEKCLKAIGSIFGKCMNKKCKCYPR-NH2; disulfide 6-27, 12-32, 16-34), in that order: over 10800, over 10800, 0.86 nM and 648.
